Laboratory results from US10398751B2, “Pharmaceutical compositions of water soluble peptides with poor solubility in isotonic conditions and methods for their use” (STRONGBRIDGE IRELAND LIMITED, priority 2016, dated 2019).
Where a name gives a salt, the structure may show the parent alone. Read-outs that look alike come from different tables or passages of the source.

Assay: Solubility screening of veldoreotide acetate (10 mg, incremental volumes of medium, USP definition)
Type: physicochemical
From the text: The solubility of veldoreotide acetate in aqueous media was screened by the following method. A fixed amount of 10 milligrams of the peptide was weighed and dissolved at ambient temperature by increased (incremental) volumes of the tested medium until a complete solubility was observed, i.e, clear/transparent solution and absence of any precipitates (the solubility endpoint values were defined according to USP guidance). Following the results of the screening studies, several media were selected for verification studies based on quantitative assessment of the peptide concentration by HPLC (maximal solubility). The results of the screening study are depicted in Table 1 while the results of the verification studies are included in Table 2.

## C[C@@H](O)[C@@H]1NC(=O)[C@H](CCCCN)NC(=O)[C@@H](Cc2c[nH]c3ccccc23)NC(=O)[C@H](Cc2c[nH]c3ccccc23)NC(=O)[C@H](Cc2ccccc2)NC(=O)CCCNC(=O)CCCN(CC(N)=O)C(=O)[C@H](Cc2ccccc2)NC1=O [Veldoreotide Acetate, Cyclo(-γ-aminobutyryl-L-phenylalanyl-L-tryptophanyl-D-tryptophanyl-L-lysyl-L-threonyl-L-phenylalanyl-N-carbamoylmethyl-γ-aminobutyryl), acetate salt]
10 mg in 0.1% TFA
  Results USP Definition: Freely soluble
10 mg in 0.1N HCL, acetate salt
  Results USP Definition: Soluble
10 mg in 0.1N HCL, listed as veldoreotide acetate, acetate salt
  Results USP Definition: soluble
10 mg in 0.9N HCL, acetate salt
  Results USP Definition: Insoluble
10 mg in 0.9N HCL, listed as veldoreotide acetate, acetate salt
  Results USP Definition: insoluble
10 mg in 2% Propylene glycol in olive oil (or cottonseed oil)
  Results USP Definition: Sparingly
10 mg in 10% EtOH (95%) in olive oil (or cottonseed oil)
  Results USP Definition: Sparingly
10 mg in Acetate saline 100 mM, Mannitol 250 mM (pH 4.3)
  Results USP Definition: Slightly soluble
10 mg in Acetic acid 1% (glacial)
  Results USP Definition: Freely soluble
10 mg in Acetone (USP)
  Results USP Definition: Freely soluble
10 mg in Caprylic acid
  Results USP Definition: Soluble
10 mg in DDW (Double distilled water)
  Results USP Definition: Freely soluble
10 mg in Dextrose 5% (USP)
  Results USP Definition: Freely soluble
10 mg in Ethanol (USP)
  Results USP Definition: Freely soluble
10 mg in Glycerol
  Results USP Definition: Soluble
10 mg in Lactic acid 37 mM, Mannitol 250 mM (pH 4.3)
  Results USP Definition: Freely soluble
10 mg in Oleic acid
  Results USP Definition: Very slightly
10 mg in PBS pH 7.2
  Results USP Definition: Very slightly
10 mg in Propylene glycol
  Results USP Definition: Freely soluble
10 mg in Refined vegetable oils, Olive, Cotton, Coconut, Canola
  Results USP Definition: Insoluble
10 mg in Saline (USP) (0.9% NaCl) pH 4.5
  Results USP Definition: Very slightly
10 mg in WFI-USP (water for injection)
  Results USP Definition: Soluble
0.1% TFA, 10 mg in 0.1% TFA, read-out: 0.01 ml Very soluble (1 g/ml)
  solubility: < 1000 mg/mL
0.1% TFA, 10 mg in 0.1% TFA, read-out: 0.5 ml Soluble (0.02 g/ml; 20 mg/ml)
  solubility: > 20 mg/mL
0.1% TFA, 10 mg in 0.1% TFA, read-out: 1 ml Sparingly soluble (0.01 g/ml; 10 mg/ml)
  solubility: > 10 mg/mL
0.1% TFA, 0.1 ml Freely soluble (0.1 g/ml), 10 mg in 0.1% TFA
  solubility: > 100 mg/mL
0.1% TFA, 10 ml Slightly soluble (0.001 g/ml; 1 mg/ml), 10 mg in 0.1% TFA
  solubility: > 1 mg/mL
0.1N HCl, 10 mg in 0.1N HCL, read-out: 0.01 ml Very soluble (1 g/ml)
  solubility: < 1000 mg/mL
0.1N HCl, 10 mg in 0.1N HCL, read-out: 0.5 ml Soluble (0.02 g/ml; 20 mg/ml)
  solubility: > 20 mg/mL
0.1N HCl, 10 mg in 0.1N HCL, read-out: 1 ml Sparingly soluble (0.01 g/ml; 10 mg/ml)
  solubility: > 10 mg/mL
0.1N HCl, 0.1 ml Freely soluble (0.1 g/ml), 10 mg in 0.1N HCL
  solubility: > 100 mg/mL
0.1N HCl, 10 ml Slightly soluble (0.001 g/ml; 1 mg/ml), 10 mg in 0.1N HCL
  solubility: > 1 mg/mL
0.9N HCl, 10 mg in 0.9N HCL, read-out: 0.01 ml Very soluble (1 g/ml)
  solubility: < 1000 mg/mL
0.9N HCl, 10 mg in 0.9N HCL, read-out: 0.5 ml Soluble (0.02 g/ml; 20 mg/ml)
  solubility: < 20 mg/mL
0.9N HCl, 10 mg in 0.9N HCL, read-out: 1 ml Sparingly soluble (0.01 g/ml; 10 mg/ml)
  solubility: < 10 mg/mL
0.9N HCl, 0.1 ml Freely soluble (0.1 g/ml), 10 mg in 0.9N HCL
  solubility: < 100 mg/mL
0.9N HCl, 10 ml Slightly soluble (0.001 g/ml; 1 mg/ml), 10 mg in 0.9N HCL
  solubility: < 1 mg/mL
2% propylene glycol in olive oil (or cottonseed oil), 10 mg in 2% Propylene glycol in olive oil (or cottonseed oil), read-out: 0.01 ml Very soluble (1 g/ml)
  solubility: < 1000 mg/mL
2% propylene glycol in olive oil (or cottonseed oil), 10 mg in 2% Propylene glycol in olive oil (or cottonseed oil), read-out: 0.5 ml Soluble (0.02 g/ml; 20 mg/ml)
  solubility: < 20 mg/mL
2% propylene glycol in olive oil (or cottonseed oil), 10 mg in 2% Propylene glycol in olive oil (or cottonseed oil), read-out: 1 ml Sparingly soluble (0.01 g/ml; 10 mg/ml)
  solubility: > 10 mg/mL
2% propylene glycol in olive oil (or cottonseed oil), 0.1 ml Freely soluble (0.1 g/ml), 10 mg in 2% Propylene glycol in olive oil (or cottonseed oil)
  solubility: < 100 mg/mL
2% propylene glycol in olive oil (or cottonseed oil), 10 ml Slightly soluble (0.001 g/ml; 1 mg/ml), 10 mg in 2% Propylene glycol in olive oil (or cottonseed oil)
  solubility: > 1 mg/mL
10% EtOH (95%) in olive oil (or cottonseed oil), 10 mg in 10% EtOH (95%) in olive oil (or cottonseed oil), read-out: 0.01 ml Very soluble (1 g/ml)
  solubility: < 1000 mg/mL
10% EtOH (95%) in olive oil (or cottonseed oil), 10 mg in 10% EtOH (95%) in olive oil (or cottonseed oil), read-out: 0.5 ml Soluble (0.02 g/ml; 20 mg/ml)
  solubility: < 20 mg/mL
10% EtOH (95%) in olive oil (or cottonseed oil), 10 mg in 10% EtOH (95%) in olive oil (or cottonseed oil), read-out: 1 ml Sparingly soluble (0.01 g/ml; 10 mg/ml)
  solubility: > 10 mg/mL
10% EtOH (95%) in olive oil (or cottonseed oil), 0.1 ml Freely soluble (0.1 g/ml), 10 mg in 10% EtOH (95%) in olive oil (or cottonseed oil)
  solubility: < 100 mg/mL
10% EtOH (95%) in olive oil (or cottonseed oil), 10 ml Slightly soluble (0.001 g/ml; 1 mg/ml), 10 mg in 10% EtOH (95%) in olive oil (or cottonseed oil)
  solubility: > 1 mg/mL
Acetate saline 100 mM, Mannitol 250 mM, pH 4.3, 10 mg in Acetate saline 100 mM, Mannitol 250 mM (pH 4.3), read-out: 0.01 ml Very soluble (1 g/ml)
  solubility: < 1000 mg/mL
Acetate saline 100 mM, Mannitol 250 mM, pH 4.3, 10 mg in Acetate saline 100 mM, Mannitol 250 mM (pH 4.3), read-out: 0.5 ml Soluble (0.02 g/ml; 20 mg/ml)
  solubility: < 20 mg/mL
Acetate saline 100 mM, Mannitol 250 mM, pH 4.3, 10 mg in Acetate saline 100 mM, Mannitol 250 mM (pH 4.3), read-out: 1 ml Sparingly soluble (0.01 g/ml; 10 mg/ml)
  solubility: < 10 mg/mL
Acetate saline 100 mM, Mannitol 250 mM, pH 4.3, 0.1 ml Freely soluble (0.1 g/ml), 10 mg in Acetate saline 100 mM, Mannitol 250 mM (pH 4.3)
  solubility: < 100 mg/mL
Acetate saline 100 mM, Mannitol 250 mM, pH 4.3, 10 ml Slightly soluble (0.001 g/ml; 1 mg/ml), 10 mg in Acetate saline 100 mM, Mannitol 250 mM (pH 4.3)
  solubility: > 1 mg/mL
Acetate saline 100 mM, Mannitol 250 mM, pH 4.3, Acetate saline 100 mM, Mannitol 250 mM (pH 4.3), read-out: Results USP Definition: solubility
  solubility: 2 to 3 mg/mL
Acetic acid 1% (glacial), 10 mg in Acetic acid 1% (glacial), read-out: 0.01 ml Very soluble (1 g/ml)
  solubility: < 1000 mg/mL
Acetic acid 1% (glacial), 10 mg in Acetic acid 1% (glacial), read-out: 0.5 ml Soluble (0.02 g/ml; 20 mg/ml)
  solubility: > 20 mg/mL
Acetic acid 1% (glacial), 10 mg in Acetic acid 1% (glacial), read-out: 1 ml Sparingly soluble (0.01 g/ml; 10 mg/ml)
  solubility: > 10 mg/mL
Acetic acid 1% (glacial), 0.1 ml Freely soluble (0.1 g/ml), 10 mg in Acetic acid 1% (glacial)
  solubility: > 100 mg/mL
Acetic acid 1% (glacial), 10 ml Slightly soluble (0.001 g/ml; 1 mg/ml), 10 mg in Acetic acid 1% (glacial)
  solubility: > 1 mg/mL
Acetone (USP), 10 mg in Acetone (USP), read-out: 0.01 ml Very soluble (1 g/ml)
  solubility: < 1000 mg/mL
Acetone (USP), 10 mg in Acetone (USP), read-out: 0.5 ml Soluble (0.02 g/ml; 20 mg/ml)
  solubility: > 20 mg/mL
Acetone (USP), 10 mg in Acetone (USP), read-out: 1 ml Sparingly soluble (0.01 g/ml; 10 mg/ml)
  solubility: > 10 mg/mL
